# Tested on: beta-TC6 cells
# Experiment: Insulin HTRF assay (relative activity Ar) in beta-TC6 cells
# Type: cell-based, mouse
# Details: Mus musculus, Beta-TC6, 4 h, insulin HTRF, supernatant of beta-TC6 cells, incubation with test compound at 37°C for 2, 3, 4h; read-out: Ar (relative activity)
# Summary of the method: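 beta-TC6 cells (15k/well, seeded 24 or 48 h) washed, then exposed to compound in induction buffer (0.5% DMSO final) for 2, 3 or 4 h at 37°C.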
row,Compound,Emax [%]
1,"CN(C)c1ccc(-c2cc3c(cn2)nc(Nc2ccccc2)n3C)cc1 [Compound 631, 6-(4-dimethylaminophenyl)-1-methyl-N-phenyl-imidazo[4,5-c]pyridin-2-amine]",> 100
2,"COc1ccc(Nc2cc3c(cn2)nc(Nc2ccccc2)n3C)cc1OC [Compound 632, N6-(3,4-dimethoxyphenyl)-1-methyl-N2-phenyl-imidazo[4,5-c]pyridine-2,6-diamine]",50 to 100
3,"Cn1c(Nc2ccccc2)nc2cnc(Nc3cccnc3)cc21 [Compound 633, 1-methyl-N2-phenyl-N6-(3-pyridyl)imidazo[4,5-c]pyridine-2,6-diamine]",50 to 100
4,"Cn1c(Nc2ccccc2)nc2cnc(Nc3ccccc3)cc21 [Compound 634, 1-methyl-N2,N6-diphenyl-imidazo[4,5-c]pyridine-2,6-diamine]",50 to 100
5,"Cn1c(Nc2ccccc2)nc2cnc(-c3cccc4ccccc34)cc21 [Compound 635, 1-methyl-6-(1-naphthyl)-N-phenyl-imidazo[4,5-c]pyridin-2-amine]",30 to 50
6,"Cn1c(Nc2ccccc2)nc2cnc(Nc3ccncc3)cc21 [Compound 636, 1-methyl-N2-phenyl-N6-(4-pyridyl)imidazo[4,5-c]pyridine-2,6-diamine]",50 to 100
7,"Cn1c(Nc2ccccc2)nc2cnc(Nc3ccccn3)cc21 [Compound 637, 1-methyl-N2-phenyl-N6-(2-pyridyl)imidazo[4,5-c]pyridine-2,6-diamine]",30 to 50
8,"Cn1c(Nc2ccccc2)nc2cnc(Nc3cccc(O)c3)cc21 [Compound 638, 3-[(2-anilino-1-methyl-imidazo[4,5-c]pyridin-6-yl)amino]phenol]",50 to 100
9,"Cn1c(Nc2ccccc2)nc2cnc(Nc3ccc(S(C)(=O)=O)cc3)cc21 [Compound 639, 1-methyl-N6-(4-methylsulfonylphenyl)-N2-phenyl-imidazo[4,5-c]pyridine-2,6-diamine]",50 to 100
10,"Cn1c(NCC2CCCO2)nc2cnc(-c3ccc(N4CCOCC4)cc3)cc21 (stereo not shown) [Compound 640, 1-methyl-6-(4-morpholinophenyl)-N-(tetrahydrofuran-2-ylmethyl)imidazo[4,5-c]pyridin-2-amine]",30 to 50
11,"COc1cc(Nc2cc3c(cn2)nc(NCC2CCCO2)n3C)cc(OC)c1OC (stereo not shown) [Compound 641, 1-methyl-N2-(tetrahydrofuran-2-ylmethyl)-N6-(3,4,5-trimethoxyphenyl)imidazo[4,5-c]pyridine-2,6-diamine]",30 to 50
12,"Cn1c(NCC2CCCO2)nc2cnc(Nc3cccc(Cl)c3)cc21 (stereo not shown) [Compound 642, N6-(3-chlorophenyl)-1-methyl-N2-(tetrahydrofuran-2-ylmethyl)imidazo[4,5-c]pyridine-2,6-diamine]",50 to 100
13,"Cn1c(NCC2CCCO2)nc2cnc(Nc3ccc(F)c(Cl)c3)cc21 (stereo not shown) [Compound 643, N6-(3-chloro-4-fluoro-phenyl)-1-methyl-N2-(tetrahydrofuran-2-ylmethyl)imidazo[4,5-c]pyridine-2,6-diamine]",30 to 50
14,"COc1ncccc1-c1cc2c(cn1)nc(NCC1CCCO1)n2C (stereo not shown) [Compound 644, 6-(2-methoxy-3-pyridyl)-1-methyl-N-(tetrahydrofuran-2-ylmethyl)imidazo[4,5-c]pyridin-2-amine]",50 to 100
15,"COCCNc1nc2cnc(Nc3cc(OC)c(OC)c(OC)c3)cc2n1C [Compound 645, N2-(2-methoxyethyl)-1-methyl-N6-(3,4,5-trimethoxyphenyl)imidazo[4,5-c]pyridine-2,6-diamine]",30 to 50
16,"COCCNc1nc2cnc(Nc3ccc(NC(C)=O)cc3)cc2n1C [Compound 646, N-[4-[[2-(2-methoxyethylamino)-1-methyl-imidazo[4,5-c]pyridin-6-yl]amino]phenyl]acetamide]",50 to 100

row,Compound,Emax [%]
1,"COCCNc1nc2cnc(-c3cccc(N(C)C)c3)cc2n1C [Compound 647, 6-[3-(dimethylamino)phenyl]-N-(2-methoxyethyl)-1-methyl-imidazo[4,5-c]pyridin-2-amine]",50 to 100
2,"COCCNc1nc2cnc(-c3ccc(S(C)(=O)=O)cc3)cc2n1C [Compound 648, N-(2-methoxyethyl)-1-methyl-6-(4-methylsulfonylphenyl)imidazo[4,5-c]pyridin-2-amine]",30 to 50
3,"COCCNc1nc2cnc(Nc3ccc(C(=O)OC)cc3)cc2n1C [Compound 649, methyl 4-[[2-(2-methoxyethylamino)-1-methyl-imidazo[4,5-c]pyridin-6-yl]amino]benzoate]",50 to 100
4,"COCCNc1nc2cnc(-c3cnn(C)c3)cc2n1C [Compound 651, N-(2-methoxyethyl)-1-methyl-6-(1-methylpyrazol-4-yl)imidazo[4,5-c]pyridin-2-amine]",50 to 100
5,"CNC(=O)c1cccc(-c2cc3c(cn2)nc(NCCOC)n3C)c1 [Compound 652, 3-[2-(2-methoxyethylamino)-1-methyl-imidazo[4,5-c]pyridin-6-yl]-N-methyl-benzamide]",50 to 100
6,"Cn1c(NCc2ccccc2F)nc2cnc(-c3ccc(N4CCOCC4)cc3)cc21 [Compound 653, N-[(2-fluorophenyl)methyl]-1-methyl-6-(4-morpholinophenyl)imidazo[4,5-c]pyridin-2-amine]",50 to 100
7,"Cn1c(NCc2ccccc2F)nc2cnc(-c3ccc(CO)cc3)cc21 [Compound 655, [4-[2-[(2-fluorophenyl)methylamino]-1-methyl-imidazo[4,5-c]pyridin-6-yl]phenyl]methanol]",50 to 100
8,"COc1cc(-c2cc3c(cn2)nc(NCc2ccccc2F)n3C)ccc1O [Compound 656, 4-[2-[(2-fluorophenyl)methylamino]-1-methyl-imidazo[4,5-c]pyridin-6-yl]-2-methoxy-phenol]",30 to 50
9,"Cn1c(NCc2ccccc2F)nc2cnc(-c3ccc(F)cc3)cc21 [Compound 657, 6-(4-fluorophenyl)-N-[(2-fluorophenyl)methyl]-1-methyl-imidazo[4,5-c]pyridin-2-amine]",30 to 50
10,"Cn1c(NCc2ccccc2F)nc2cnc(-c3cccs3)cc21 [Compound 658, N-[(2-fluorophenyl)methyl]-1-methyl-6-(2-thienyl)imidazo[4,5-c]pyridin-2-amine]",50 to 100
11,"CNc1nc2cnc(-c3cccc(N)c3)cc2n1Cc1ccc(OC)c(OC)c1 [Compound 659, 6-(3-aminophenyl)-1-[(3,4-dimethoxyphenyl)methyl]-N-methyl-imidazo[4,5-c]pyridin-2-amine]",30 to 50
12,"CNc1nc2cnc(Nc3cc(OC)c(OC)c(OC)c3)cc2n1Cc1ccc(OC)c(OC)c1 [Compound 660, 1-[(3,4-dimethoxyphenyl)methyl]-N2-methyl-N6-(3,4,5-trimethoxyphenyl)imidazo[4,5-c]pyridine-2,6-diamine]",50 to 100
13,"CNc1nc2cnc(Nc3ccc(NC(C)=O)cc3)cc2n1Cc1ccc(OC)c(OC)c1 [Compound 661, N-[4-[[1-[(3,4-dimethoxyphenyl)methyl]-2-(methylamino)imidazo[4,5-c]pyridin-6-yl]amino]phenyl]acetamide]",50 to 100
14,"CNc1nc2cnc(Nc3cccc(OC)c3)cc2n1Cc1ccc(OC)c(OC)c1 [Compound 662, 1-[(3,4-dimethoxyphenyl)methyl]-N6-(3-methoxyphenyl)-N2-methyl-imidazo[4,5-c]pyridine-2,6-diamine]",50 to 100
15,"CNc1nc2cnc(Nc3ccc(O)cc3)cc2n1Cc1ccc(OC)c(OC)c1 [Compound 663, 4-[[1-[(3,4-dimethoxyphenyl)methyl]-2-(methylamino)imidazo[4,5-c]pyridin-6-yl]amino]phenol]",50 to 100

# Reference: patent EP2818472A1, “Imidazo[4,5-c]pyridine and pyrrolo[3,2-c]pyridine compounds as G-protein-coupled receptor kinase 5 (GRK5) modulators” (Max-Planck-Gesellschaft zur Förderung der Wissenschaften …, priority 2013, dated 2014)
